Results reported in patent US20240294489A1 (Captor Therapeutics S.A., priority 2020, published 2024).
Read-outs that look alike come from different tables or passages of the source.

Tests used:
Format in all cases: cell-based
[1] = biological target: T1, SALL4 (Homo sapiens, UniProt Q96SW2+Q9UJQ4); assay: SALL4 degradation assay, Kelly cell line (Western blot densitometry); conditions: Kelly cells, 24 h; for % of SALL4 protein reduction: 100 nM, average from n ≥ 2 experiments
T1 construct: SALL4 degradation in the Kelly cell line was investigated; endogenous in cells; host or cells: Kelly
Method: (§1) Cells were seeded on 6- or 12-well plates, and the compounds to be tested were added at the desired concentration range. […] After 24 h incubation (37° C., 5% CO2), cells were harvested, washed and cell lysates were prepared using RIPA lysis buffer. The amount of protein was determined via BCA assay, and the appropriate quantity was then loaded on the precast gel for the protein separation. After primary and secondary Ab staining, the membranes were washed and signals developed. The densitometry analysis was implemented to obtain the numeric values used later in the protein level evaluation process.

[2] = biological target: T2, Ikaros (IKZF1) (Homo sapiens, UniProt Q13422+Q96SW2); assay: Ikaros degradation assay, H929 cell line; conditions: H929 cells, 24 h; for inhibition at 10 µM / inhibition at 20 µM: NCI-H929, read-out: % of IKZF1 protein reduction
T2 construct: Ikaros degradation in the H929 cell line was investigated; endogenous in cells; host or cells: H929
Method: as §1

[3] = test system: KG-1 cells; assay: Cell viability CTG assay, KG-1; conditions: Homo sapiens; KG-1, 72 h, 0.001-50 μM; read-out: KG-1 Geomean absolute IC50 by molecule, 72 H
Method: (§2) The effect of various compounds of the invention and various reference compounds on cell viability in various cell lines was investigated, using the Cell Viability—CTG Assay Protocol below. Hep3B, Kelly, H929, KG-1 and SNU-398 cells were maintained in respective cell medium (see Table 8, below). The cells were seeded on the 96-well or 384-white plates, and the compounds to be tested were added at the desired concentration range. Compounds are diluted in DMSO, and the DMSO concentration is kept constant at 0.25% v/v across the assay plate. After 72 h incubation (37° C., 5% CO2), CellTiter-Glo® Reagent (Promega/G7570) was added to the wells. Plates are shaken for 4 minutes and incubated for 8 minutes in the dark prior to reading luminescence (LU) by using the CLARIOstar Multimode Plate Reader. The signal is proportional to the amount of ATP, which is directly proportional to the number of cells present in the culture.
(§3) Luminescence (RLU) values were normalized to DMSO control. Dose response is assessed by non-linear regression and IC50 calculation with the average of technical duplicate of percentage inhibition. IC50 values are reported as absolute IC50 values, being the concentration of test compound at the intersection of the concentration-response curves with T/C=50%. For calculation of mean IC50 values the geometric mean is used.

[4] = test system: Kelly cells; assay: Cell viability CTG assay, Kelly; conditions: 72 h, 0.001-50 μM, read-out: Kelly Geomean absolute IC50 by molecule, 72 H
Method: as §2, §3

[5] = test system: Hep3B cells; assay: Cell viability CTG assay, Hep3B; conditions: Homo sapiens, 72 h, 0.001-50 μM, read-out: Hep3B Geomean absolute IC50 by molecule, 72 H
Method: as §2, §3

[6] = test system: H929 cells; assay: Cell viability CTG assay, H929; parameters: key to Geomean absolute IC50 by molecule, 72 H: Inactive represents IC50 > 50 μM; C represents 50 μM ≥ IC50 > 5 μM; conditions: H929, 72 h, 0.001-50 μM; for IC50: Homo sapiens, NCI-H929, read-out: Geomean absolute IC50 by molecule, 72 H
Method: as §2, §3

[7] = biological target: T3, GSPT1 (Homo sapiens, UniProt P15170+Q96SW2); assay: GSPT1 degradation assay, Hep3B cell line; conditions: HEP3B cells, 24 h, read-out: % of GSPT1 protein reduction
T3 construct: GSPT1 degradation in the Hep3B cell line was investigated; endogenous in cells; host or cells: Hep3B
Method: Hep3B cells were maintained in EMEM medium, supplemented with penicillin/streptomycin and 10% Fetal Bovine Serum (FBS). Cells were seeded on 6- or 12-well plates, and the compounds to be tested were added at the desired concentration range. Final DMSO concentration was 0.25%. After 24 h incubation (37° C., 5% CO2), cells were harvested, washed and cell lysates were prepared using RIPA lysis buffer. The amount of protein was determined via BCA assay, and the appropriate quantity was then loaded on the precast gel for the protein separation. After primary and secondary Ab staining, the membranes were washed and signals developed. The densitometry analysis was implemented to obtain the numeric values used later in the protein level evaluation process. Densitometry values were normalized to the loading control and calculated as [%] of the DMSO control.

[8] = biological target: T4, Aiolos (IKZF3) (Homo sapiens, UniProt Q96SW2+Q9UKT9); assay: Aiolos degradation assay, H929 cell line; conditions: H929 cells, 20 μM, 24 h
T4 construct: Aiolos degradation in the H929 cell line was investigated; endogenous in cells; host or cells: H929
Method: as §1

T1 sequence (Q9UJQ4 whole entry): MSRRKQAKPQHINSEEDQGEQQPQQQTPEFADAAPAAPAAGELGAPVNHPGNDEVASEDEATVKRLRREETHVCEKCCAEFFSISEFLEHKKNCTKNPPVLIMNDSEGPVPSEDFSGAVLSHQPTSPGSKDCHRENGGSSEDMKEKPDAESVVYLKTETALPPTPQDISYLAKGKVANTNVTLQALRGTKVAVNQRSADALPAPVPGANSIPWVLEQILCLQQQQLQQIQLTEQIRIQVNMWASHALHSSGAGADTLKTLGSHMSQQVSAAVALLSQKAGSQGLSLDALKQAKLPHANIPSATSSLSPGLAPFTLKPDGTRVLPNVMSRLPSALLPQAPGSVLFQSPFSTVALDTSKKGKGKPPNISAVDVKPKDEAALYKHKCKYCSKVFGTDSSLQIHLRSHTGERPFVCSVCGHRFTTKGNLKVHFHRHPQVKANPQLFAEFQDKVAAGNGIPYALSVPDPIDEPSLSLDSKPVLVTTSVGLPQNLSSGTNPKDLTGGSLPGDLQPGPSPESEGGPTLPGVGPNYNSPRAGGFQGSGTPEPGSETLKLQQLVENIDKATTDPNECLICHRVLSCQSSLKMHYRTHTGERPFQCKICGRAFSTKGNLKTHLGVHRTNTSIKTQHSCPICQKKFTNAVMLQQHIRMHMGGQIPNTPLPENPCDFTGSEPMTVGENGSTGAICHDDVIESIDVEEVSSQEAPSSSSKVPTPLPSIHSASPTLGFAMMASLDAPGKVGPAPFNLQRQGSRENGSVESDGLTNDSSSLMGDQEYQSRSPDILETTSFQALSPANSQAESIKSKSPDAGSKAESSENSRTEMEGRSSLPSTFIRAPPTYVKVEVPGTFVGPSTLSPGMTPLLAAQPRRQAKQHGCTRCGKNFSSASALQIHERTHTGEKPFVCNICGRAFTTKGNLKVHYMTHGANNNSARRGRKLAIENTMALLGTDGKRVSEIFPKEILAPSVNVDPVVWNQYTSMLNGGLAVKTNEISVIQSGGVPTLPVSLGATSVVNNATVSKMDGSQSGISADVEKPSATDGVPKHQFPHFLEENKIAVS
T1 sequence (Q96SW2 whole entry): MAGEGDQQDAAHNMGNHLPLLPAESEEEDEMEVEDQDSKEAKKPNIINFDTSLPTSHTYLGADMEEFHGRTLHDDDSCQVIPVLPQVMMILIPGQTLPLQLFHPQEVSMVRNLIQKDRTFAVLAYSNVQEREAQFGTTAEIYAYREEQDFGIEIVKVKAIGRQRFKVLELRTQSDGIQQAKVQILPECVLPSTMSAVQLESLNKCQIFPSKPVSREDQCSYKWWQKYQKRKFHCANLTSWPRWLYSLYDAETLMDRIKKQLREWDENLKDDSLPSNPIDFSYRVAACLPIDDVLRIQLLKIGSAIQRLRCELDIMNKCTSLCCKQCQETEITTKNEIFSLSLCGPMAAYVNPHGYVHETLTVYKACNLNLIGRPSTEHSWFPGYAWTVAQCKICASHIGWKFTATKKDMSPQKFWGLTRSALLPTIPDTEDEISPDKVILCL
T1 sequence (Q16531 whole entry partner): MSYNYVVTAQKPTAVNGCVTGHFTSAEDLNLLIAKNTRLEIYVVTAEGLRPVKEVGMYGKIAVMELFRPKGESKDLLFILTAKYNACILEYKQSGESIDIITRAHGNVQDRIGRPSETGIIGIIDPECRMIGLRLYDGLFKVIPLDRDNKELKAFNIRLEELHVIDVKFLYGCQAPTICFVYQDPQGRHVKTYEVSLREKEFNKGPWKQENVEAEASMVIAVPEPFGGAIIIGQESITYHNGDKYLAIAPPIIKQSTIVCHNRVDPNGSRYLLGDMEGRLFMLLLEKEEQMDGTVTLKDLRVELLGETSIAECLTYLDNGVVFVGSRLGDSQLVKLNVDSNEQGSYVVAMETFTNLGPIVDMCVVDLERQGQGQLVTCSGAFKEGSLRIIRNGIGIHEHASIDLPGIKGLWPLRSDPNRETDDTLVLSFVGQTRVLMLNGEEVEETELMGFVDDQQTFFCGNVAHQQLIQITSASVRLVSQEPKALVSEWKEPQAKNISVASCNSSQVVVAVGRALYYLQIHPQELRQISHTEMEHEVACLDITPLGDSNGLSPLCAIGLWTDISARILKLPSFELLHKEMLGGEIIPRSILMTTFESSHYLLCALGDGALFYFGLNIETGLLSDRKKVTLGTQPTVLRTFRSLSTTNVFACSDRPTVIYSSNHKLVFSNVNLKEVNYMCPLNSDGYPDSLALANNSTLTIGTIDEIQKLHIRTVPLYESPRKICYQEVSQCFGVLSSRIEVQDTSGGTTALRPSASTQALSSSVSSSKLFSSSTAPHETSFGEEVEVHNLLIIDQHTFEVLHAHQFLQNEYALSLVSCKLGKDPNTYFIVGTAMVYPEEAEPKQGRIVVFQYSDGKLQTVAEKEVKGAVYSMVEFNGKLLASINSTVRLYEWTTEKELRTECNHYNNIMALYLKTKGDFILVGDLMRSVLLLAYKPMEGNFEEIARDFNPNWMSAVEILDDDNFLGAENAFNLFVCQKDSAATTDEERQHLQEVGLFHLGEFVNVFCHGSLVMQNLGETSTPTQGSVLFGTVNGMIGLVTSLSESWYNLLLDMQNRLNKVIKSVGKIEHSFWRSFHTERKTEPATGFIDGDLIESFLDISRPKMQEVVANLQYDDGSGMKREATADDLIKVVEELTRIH
T3 sequence (P15170 whole entry): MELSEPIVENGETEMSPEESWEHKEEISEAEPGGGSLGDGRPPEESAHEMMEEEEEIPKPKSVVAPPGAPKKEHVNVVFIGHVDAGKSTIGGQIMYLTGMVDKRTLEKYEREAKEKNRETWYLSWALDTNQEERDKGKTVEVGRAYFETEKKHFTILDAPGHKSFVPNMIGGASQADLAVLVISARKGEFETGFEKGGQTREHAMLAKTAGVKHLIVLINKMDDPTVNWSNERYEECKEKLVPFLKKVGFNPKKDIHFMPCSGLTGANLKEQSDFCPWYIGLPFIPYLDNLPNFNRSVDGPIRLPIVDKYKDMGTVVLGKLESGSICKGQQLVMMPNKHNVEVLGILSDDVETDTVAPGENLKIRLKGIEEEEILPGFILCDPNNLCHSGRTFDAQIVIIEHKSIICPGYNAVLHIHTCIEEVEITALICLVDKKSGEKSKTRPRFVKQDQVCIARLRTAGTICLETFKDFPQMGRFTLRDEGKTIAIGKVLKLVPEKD
T3 sequence (Q96SW2 whole entry): as the sequence (Q96SW2 whole entry) above
T3 sequence (Q16531 whole entry partner): as the sequence (Q16531 whole entry partner) above
T2 sequence (Q13422 whole entry): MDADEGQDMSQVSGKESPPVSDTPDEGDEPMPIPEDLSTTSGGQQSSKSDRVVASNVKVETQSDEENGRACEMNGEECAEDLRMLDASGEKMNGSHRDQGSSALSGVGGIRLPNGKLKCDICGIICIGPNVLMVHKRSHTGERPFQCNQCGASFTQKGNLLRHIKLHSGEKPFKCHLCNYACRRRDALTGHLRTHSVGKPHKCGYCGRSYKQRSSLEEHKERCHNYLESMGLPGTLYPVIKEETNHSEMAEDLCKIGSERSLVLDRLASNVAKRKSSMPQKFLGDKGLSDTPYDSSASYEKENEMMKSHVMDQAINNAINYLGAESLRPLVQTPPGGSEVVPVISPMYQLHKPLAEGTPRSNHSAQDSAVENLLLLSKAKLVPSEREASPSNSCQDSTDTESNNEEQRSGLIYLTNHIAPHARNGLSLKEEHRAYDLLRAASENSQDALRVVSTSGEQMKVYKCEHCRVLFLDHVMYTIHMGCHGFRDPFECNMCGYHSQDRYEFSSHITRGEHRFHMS
T2 sequence (Q96SW2 whole entry): as the sequence (Q96SW2 whole entry) above
T2 sequence (Q16531 whole entry partner): as the sequence (Q16531 whole entry partner) above
T4 sequence (Q9UKT9 whole entry): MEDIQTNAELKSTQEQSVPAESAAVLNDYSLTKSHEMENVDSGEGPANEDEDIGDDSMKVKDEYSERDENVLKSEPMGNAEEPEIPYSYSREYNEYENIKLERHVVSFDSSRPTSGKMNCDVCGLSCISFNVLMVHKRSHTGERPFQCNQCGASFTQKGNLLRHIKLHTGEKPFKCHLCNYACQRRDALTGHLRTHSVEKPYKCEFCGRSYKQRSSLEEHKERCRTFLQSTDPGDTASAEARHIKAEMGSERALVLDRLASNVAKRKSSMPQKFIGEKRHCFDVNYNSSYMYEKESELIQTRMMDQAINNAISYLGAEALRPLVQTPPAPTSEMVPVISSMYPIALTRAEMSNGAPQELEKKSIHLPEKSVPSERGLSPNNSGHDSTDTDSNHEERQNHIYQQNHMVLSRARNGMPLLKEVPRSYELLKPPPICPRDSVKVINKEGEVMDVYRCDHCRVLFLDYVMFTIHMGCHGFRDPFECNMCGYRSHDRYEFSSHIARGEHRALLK
T4 sequence (Q96SW2 whole entry): as the sequence (Q96SW2 whole entry) above
T4 sequence (Q16531 whole entry partner): as the sequence (Q16531 whole entry partner) above

## [2H]C([2H])(N)c1ccc2c(c1)CN(C1CCC(=O)NC1=O)C2=O (stereo not shown) [Compound 2, 3-(5-(aminomethyl-d2)-1-oxoisoindolin-2-yl)piperidine-2,6-dione]
[1]
  % of SALL4 protein reduction: >80%
[2]; 10 uM
  inhibition at 10 µM: 0 to 24%
[3]
  IC50: 100 to 1000 nM
[4]
  IC50: 100 to 1000 nM
[5]
  IC50: ≤ 100 nM
[6]
  IC50: 5000 to 50000 nM
[7]; 10 uM
  inhibition at 10 µM: 80 to 100%

## CC(=O)Oc1cc(C)cc(C)c1C(C)(C)CC(=O)NCc1ccc2c(c1)CN(C1CCC(=O)NC1=O)C2=O (stereo not shown) [Compound 21, 2-[1-({[2-(2,6-dioxopiperidin-3-yl)-1-oxo-2,3-dihydro-1H-isoindol-5-yl]methyl}carbamoyl)-2-methylpropan-2-yl]-3,5-dimethylphenyl acetate]
[1]
  % of SALL4 protein reduction: >80%
[3]
  IC50: 1000 to 5000 nM
[4]
  IC50: 1000 to 5000 nM
[5]
  IC50: ≤ 100 nM
[6]
  Geomean absolute IC50 by molecule, 72 H: Inactive

## CC(=O)Oc1ccc(COC(=O)NCc2ccc3c(c2)CN(C2CCC(=O)NC2=O)C3=O)cc1 (stereo not shown) [Compound 22, 4-(((((2-(2,6-dioxopiperidin-3-yl)-1-oxoisoindolin-5-yl)methyl)carbamoyl)oxy)methyl)phenyl acetate]
[3]
  IC50: ≤ 100 nM
[4]
  IC50: 100 to 1000 nM
[5]
  IC50: ≤ 100 nM
[6]
  IC50: 5000 to 50000 nM

## CC(OC(=O)NCc1ccc2c(c1)CN(C1CCC(=O)NC1=O)C2=O)OC(=O)C(C)C (stereo not shown) [Compound 23, 1-((((2-(2,6-dioxopiperidin-3-yl)-1-oxoisoindolin-5-yl)methyl)carbamoyl)oxy)ethyl isobutyrate]
[1]
  % of SALL4 protein reduction: >80%
[2]; 20 uM
  inhibition at 20 µM: 0 to 24%
[5]
  IC50: ≤ 100 nM
[6]
  Geomean absolute IC50 by molecule, 72 H: Inactive

## Cc1oc(=O)oc1COC(=O)NCc1ccc2c(c1)CN(C1CCC(=O)NC1=O)C2=O (stereo not shown) [Compound 24, (5-methyl-2-oxo-2H-1,3-dioxol-4-yl)methyl N-{[2-(2,6-dioxopiperidin-3-yl)-1-oxo-2,3-dihydro-1H-isoindol-5-yl]methyl}carbamate]
[2]; 20 uM
  inhibition at 20 µM: 0 to 24%
[3]
  IC50: ≤ 100 nM
[4]
  IC50: 1000 to 5000 nM
[5]
  IC50: ≤ 100 nM
[6]
  Geomean absolute IC50 by molecule, 72 H: Inactive

## NCC(=O)NCc1ccc2c(c1)CN(C1CCC(=O)NC1=O)C2=O (stereo not shown) [Compound 25, 2-amino-N-((2-(2,6-dioxopiperidin-3-yl)-1-oxoisoindolin-5-yl)methyl)acetamide]
[2]; 20 uM
  inhibition at 20 µM: 0 to 24%
[3]
  IC50: 1000 to 5000 nM
[4]
  IC50: 1000 to 5000 nM
[5]
  IC50: 100 to 1000 nM
[6]
  Geomean absolute IC50 by molecule, 72 H: Inactive

## N[C@@H](Cc1cnc[nH]1)C(=O)NCc1ccc2c(c1)CN([C@@H]1CCC(=O)NC1=O)C2=O [Compound 27, (S)-2-amino-N-((2-((R)-2,6-dioxopiperidin-3-yl)-1-oxoisoindolin-5-yl)methyl)-3-(1H-imidazol-4-yl)propanamide]
[1]
  % of SALL4 protein reduction: >80%
[2]; 10 uM
  inhibition at 10 µM: 0 to 24%
[3]
  IC50: 100 to 1000 nM
[4]
  IC50: 100 to 1000 nM
[8]
  % of IKZF3 protein reduction: C (C represents 0-24% of IKZF1 protein reduction)
[5]
  IC50: 100 to 1000 nM
[6]
  Geomean absolute IC50 by molecule, 72 H: Inactive
[7]
  inhibition at 1 µM: 80 to 100%

## N[C@@H](Cc1cnc[nH]1)C(=O)NCc1ccc2c(c1)CN([C@H]1CCC(=O)NC1=O)C2=O [Compound 28, (S)-2-amino-N-((2-((S)-2,6-dioxopiperidin-3-yl)-1-oxoisoindolin-5-yl)methyl)-3-(1H-imidazol-4-yl)propanamide]
[2]; 10 uM
  inhibition at 10 µM: 0 to 24%
[3]
  IC50: 100 to 1000 nM
[4]
  IC50: 100 to 1000 nM
[8]
  % of IKZF3 protein reduction: C (C represents 0-24% of IKZF1 protein reduction)
[5]
  IC50: 100 to 1000 nM
[6]
  Geomean absolute IC50 by molecule, 72 H: Inactive
[7]
  inhibition at 1 µM: 80 to 100%

## CC(C)(C)OC(=O)N[C@@H](Cc1cnc[nH]1)C(=O)NCc1ccc2c(c1)CN([C@@H]1CCC(=O)NC1=O)C2=O [Compound 29, tert-butyl ((S)-1-(((2-((R)-2,6-dioxopiperidin-3-yl)-1-oxoisoindolin-5-yl)methyl)amino)-3-(1H-imidazol-4-yl)-1-oxopropan-2-yl)carbamate]
[2]; 20 uM
  inhibition at 20 µM: 0 to 24%
[8]
  % of IKZF3 protein reduction: C (C represents 0-24% of IKZF1 protein reduction)

## CC(C)C(NC(=O)OC(C)(C)C)C(=O)NCc1ccc2c(c1)CN(C1CCC(=O)NC1=O)C2=O (stereo not shown) [Compound 31, tert-butyl (1-(((2-(2,6-dioxopiperidin-3-yl)-1-oxoisoindolin-5-yl)methyl)amino)-3-methyl-1-oxobutan-2-yl)carbamate]
[2]; 20 uM
  inhibition at 20 µM: 0 to 24%
[3]
  IC50: 1000 to 5000 nM
[4]
  IC50: 1000 to 5000 nM
[5]
  IC50: 100 to 1000 nM
[6]
  Geomean absolute IC50 by molecule, 72 H: Inactive

## NC(Cc1c[nH]c2ccccc12)C(=O)NCc1ccc2c(c1)CN(C1CCC(=O)NC1=O)C2=O (stereo not shown) [Compound 37, 2-amino-N-((2-(2,6-dioxopiperidin-3-yl)-1-oxoisoindolin-5-yl)methyl)-3-(1H-indol-3-yl)propanamide]
[2]; 20 uM
  inhibition at 20 µM: 0 to 24%
[3]
  IC50: 100 to 1000 nM
[4]
  IC50: 100 to 1000 nM
[5]
  IC50: ≤ 100 nM
[6]
  Geomean absolute IC50 by molecule, 72 H: Inactive

## C[C@@H](O)[C@H](N)C(=O)NCc1ccc2c(c1)CN(C1CCC(=O)NC1=O)C2=O (stereo partly drawn) [Compound 39, (2S,3R)-2-amino-N-((2-(2,6-dioxopiperidin-3-yl)-1-oxoisoindolin-5-yl)methyl)-3-hydroxybutanamide]
[2]; 20 uM
  inhibition at 20 µM: 0 to 24%
[3]
  IC50: 1000 to 5000 nM
[4]
  IC50: 1000 to 5000 nM
[5]
  IC50: 100 to 1000 nM
[6]
  Geomean absolute IC50 by molecule, 72 H: Inactive

## CCCCCC(=O)NCc1ccc2c(c1)CN(C1CCC(=O)NC1=O)C2=O (stereo not shown) [Compound 100, reference compound]
[2]; 10 uM, numeric values
  inhibition at 10 µM: 52%
[8]; numeric values
  % of IKZF3 protein reduction: 52%

## Nc1cccc2c1C(=O)N(C1CCC(=O)NC1=O)C2=O (stereo not shown) [Pomalidomide, pomalidomide, reference compound]
[2]; 10 uM, numeric values
  % of IKZF1 protein reduction: 86%
[2]; 20 uM, numeric values
  % of IKZF1 protein reduction: 91%
[8]; numeric values
  % of IKZF3 protein reduction: 87%
[6]; numeric values
  IC50: 61 nM

## O=C1CCC(N2C(=O)c3ccccc3C2=O)C(=O)N1 (stereo not shown) [Thalidomide, reference compound]
[1]; 0.01 μM, FIG. 1
  degradation of SALL4: lower activity
[1]
  % of SALL4 protein reduction: 53%
